BigSolDB 2.1

O=C(O)/C=C/c1ccc(O)cc1
solubility (mole fraction)
Conditions	in acetone	in ethanol	in ethyl acetate	in isobutanol	in isopropanol	in methanol	in methyl acetate	in n-butanol	in n-propanol
293.15 K	0.0383	0.0409	0.0113	0.0193	0.0294	0.036	0.0146	0.0323	0.0334
298.15 K	0.0428	0.0456	0.0128	0.0226	0.0331	0.0395	0.0176	0.0371	0.0373
303.15 K	0.0468	0.0507	0.0144	0.0256	0.0373	0.0438	0.0205	0.0432	0.0429
308.15 K	0.0516	0.0552	0.0162	0.0295	0.0417	0.0484	0.0244	0.0503	0.0478
313.15 K	0.0574	0.0614	0.0183	0.0332	0.0462	0.053	0.0292	0.0582	0.0525
318.15 K	0.0619	0.0666	0.0205	0.0371	0.0511	0.0573	0.034	0.0647	0.0588
323.15 K	0.0685	0.0725	0.0229	0.0425	0.0562	0.063	0.0394	0.0731	0.0652
328.15 K	0.0756	0.0785	0.0256	0.0483	0.0617	0.0693	0.0457	0.0823	0.0714
333.15 K	0.0825	0.0861	0.0286	0.0535	0.067	0.0757	0.0519	0.0924	0.0791
